Measured values: ChEMBL document CHEMBL5505996, “Discovery of novel osthole derivatives exerting anti-inflammatory effect on DSS-induced ulcerative colitis and LPS-induced acute lung injury in mice” (Eur J Med Chem, 2024)
Values after ≈ are worked out from the molar mass of the structure shown. Active and inactive are the calls of the source. The rule behind the calls is not given here.

Tests used:
[1] = test system: J774.A1; test: Cytotoxicity against mouse J774.A1 cells assessed as reduction in cell proliferation at 10 uM measured after 24 hrs by CCK-8 assay; format: toxicity, cell-based; conditions: j774.a1, 24 h
[2] = Aqueous solubility of compound in phosphate buffer at pH 7.4 measured after 24 hrs by HPLC analysis; format: physicochemical
[3] = test system: J774.A1; test: Antiinflammatory activity against LPS-induced mouse J774.A1 cells assessed as inhibition of IL-6 release pretreated for 30 mins followed by LPS stimulation and measured after 24 hrs by ELISA; format: functional, cell-based
[4] = test system: THP-1; test: Antiinflammatory activity against LPS-induced PMA-differentiated human THP-1 cells assessed as inhibition of TNF-alpha release pretreated for 30 mins followed by LPS stimulation and measured after 24 hrs by ELISA; format: functional, cell-based
[5] = test system: RAW264.7; test: Antiinflammatory activity against LPS-induced mouse RAW264.7 cells assessed as inhibition of IL-6 release pretreated for 30 mins followed by LPS stimulation and measured after 24 hrs by ELISA; format: functional, cell-based
[6] = test system: RAW264.7; test: Potency index, ratio of osthole IC50 to test compound IC50 for antiinflammatory activity against LPS-induced mouse RAW264.7 cells assessed as inhibition of IL-6 release pretreated for 30 mins followed by LPS stimulation and measured after 24 hrs by ELISA; format: functional; conditions: time 24.5 hrs
[7] = test system: RAW264.7; test: Potency index, ratio of osthole IC50 to test compound IC50 for antiinflammatory activity against LPS-induced mouse RAW264.7 cells assessed as inhibition of TNF-alpha release pretreated for 30 mins followed by LPS stimulation and measured after 24 hrs by ELISA; format: functional; conditions: time 24.5 hrs
[8] = Half life in male Sprague-Dawley rat at 10 mg/kg, po by UPLC-MS/MS analysis; format: ADME, organism-based; conditions: in vivo
[9] = Tmax in male Sprague-Dawley rat at 10 mg/kg, po by UPLC-MS/MS analysis; format: ADME, organism-based; conditions: in vivo
[10] = AUC (0 to t) in male Sprague-Dawley rat at 10 mg/kg, po by UPLC-MS/MS analysis; format: ADME, organism-based; conditions: in vivo
[11] = Acute toxicity in ICR mouse assessed as reduction in body weight at 500 mg/kg, po measured daily for 10 days; format: organism-based; conditions: in vivo, 240 h, time 10 day
[12] = Acute toxicity in ICR mouse assessed as effect on physiological status at 500 mg/kg, po measured daily for 10 days; format: organism-based; conditions: in vivo, 240 h, time 10 day
[13] = Acute toxicity in ICR mouse assessed as pathological changes in liver at 500 mg/kg, po measured daily for 10 days by H and E staining based analysis; format: organism-based; conditions: in vivo, 240 h, time 10 day
[14] = Acute toxicity in ICR mouse assessed as pathological changes in spleen at 500 mg/kg, po measured daily for 10 days by H and E staining based analysis; format: organism-based; conditions: in vivo, 240 h, time 10 day
[15] = Acute toxicity in ICR mouse assessed as pathological changes in kidney at 500 mg/kg, po measured daily for 10 days by H and E staining based analysis; format: organism-based; conditions: in vivo, 240 h, time 10 day
[16] = test system: J774.A1; test: Inhibition of NFkappaB signaling pathway in LPS-induced mouse J774.A1 cells assessed as reduction in p65 phosphorylation pretreated for 2 hrs followed by LPS stimulation and measured after 30 mins by Western blot analysis; format: cell-based; conditions: time 2.5 hrs
[17] = test system: J774.A1; test: Inhibition of NFkappaB signaling pathway in LPS-induced mouse J774.A1 cells assessed as reduction in IkappaBalpha degradation pretreated for 2 hrs followed by LPS stimulation and measured after 30 mins by Western blot analysis; format: cell-based; conditions: time 2.5 hrs
[18] = test system: J774.A1; test: Inhibition of MAPK signaling pathway in LPS-stimulated mouse J774.A1 cells assessed as reduction in p38 phosphorylation at 10 uM pretreated for 2 hrs followed by LPS stimulation and measured after 30 mins by Western blot analysis; format: cell-based; conditions: time 2.5 hrs
[19] = test system: J774.A1; test: Inhibition of MAPK signaling pathway in LPS-stimulated mouse J774.A1 cells assessed as reduction in JNK phosphorylation at 10 uM pretreated for 2 hrs followed by LPS stimulation and measured after 30 mins by Western blot analysis; format: cell-based; conditions: time 2.5 hrs
[20] = biological target: Interleukin-1 receptor-associated kinase 1 (Homo sapiens) (UniProt P51617); test: Inhibition of IRAK1 (unknown origin) at 10 uM relative to control
Sequence of Interleukin-1 receptor-associated kinase 1 (Homo sapiens) (P51617 whole entry, looked up): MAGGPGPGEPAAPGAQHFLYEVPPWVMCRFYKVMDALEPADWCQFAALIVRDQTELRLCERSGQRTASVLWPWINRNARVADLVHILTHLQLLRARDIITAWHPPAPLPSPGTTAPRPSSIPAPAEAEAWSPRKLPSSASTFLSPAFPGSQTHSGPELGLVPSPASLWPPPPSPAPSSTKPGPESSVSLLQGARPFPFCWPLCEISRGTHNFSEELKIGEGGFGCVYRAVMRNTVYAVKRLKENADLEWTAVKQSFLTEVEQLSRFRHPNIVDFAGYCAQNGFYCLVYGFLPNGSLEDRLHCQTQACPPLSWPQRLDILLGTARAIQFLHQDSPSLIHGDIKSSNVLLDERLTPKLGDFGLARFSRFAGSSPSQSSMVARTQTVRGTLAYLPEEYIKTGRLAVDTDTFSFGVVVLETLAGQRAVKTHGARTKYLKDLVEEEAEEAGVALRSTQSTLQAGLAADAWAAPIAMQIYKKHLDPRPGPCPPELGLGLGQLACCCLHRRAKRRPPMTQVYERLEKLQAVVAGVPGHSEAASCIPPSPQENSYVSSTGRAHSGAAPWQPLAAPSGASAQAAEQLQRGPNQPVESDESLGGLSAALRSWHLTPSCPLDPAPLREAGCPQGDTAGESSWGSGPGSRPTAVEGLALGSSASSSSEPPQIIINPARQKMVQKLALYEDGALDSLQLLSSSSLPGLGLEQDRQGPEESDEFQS

[21] = test system: Mus musculus; test: Antiinflammatory activity against C57BL/6 mouse model of DSS induced ulcerative colitis assessed as reduction in IL-6 level in serum at 20 mg/kg, po administered daily for 10 days; format: functional, organism-based; conditions: time 10.0 day
[22] = test system: Mus musculus; test: Antiinflammatory activity against C57BL/6 mouse model of DSS induced ulcerative colitis assessed as reversal of weight loss at 20 mg/kg, po administered daily for 10 days; format: functional, organism-based; conditions: time 10.0 day
[23] = test system: Mus musculus; test: Antiinflammatory activity against C57BL/6 mouse model of DSS induced ulcerative colitis assessed as reversal of shortened intestinal length due to fecal obstruction at 20 mg/kg, po administered daily for 10 days; format: functional, organism-based; conditions: time 10.0 day
[24] = test system: Mus musculus; test: Antiinflammatory activity against C57BL/6 mouse model of DSS induced ulcerative colitis assessed as reversal of splenomegaly at 20 mg/kg, po administered daily for 10 days; format: functional, organism-based; conditions: time 10.0 day
[25] = test system: Mus musculus; test: Antiinflammatory activity against C57BL/6 mouse model of DSS induced ulcerative colitis assessed as reversal of splenomegaly at 100 mg/kg, po administered daily for 10 days; format: functional, organism-based; conditions: time 10.0 day
[26] = test system: Mus musculus; test: Antiinflammatory activity against C57BL/6 mouse model of DSS induced ulcerative colitis assessed as protection against mucosal damage at 20 mg/kg, po administered daily for 10 days by H and E staining based analysis; format: functional, organism-based; conditions: time 10.0 day
[27] = test system: Mus musculus; test: Antiinflammatory activity against C57BL/6 mouse model of DSS induced ulcerative colitis assessed as protection against crypt necrosis at 20 mg/kg, po administered daily for 10 days by H and E staining based analysis; format: functional, organism-based; conditions: time 10.0 day
[28] = test system: Mus musculus; test: Antiinflammatory activity against C57BL/6 mouse model of DSS induced ulcerative colitis assessed as protection against goblet cell depletion at 20 mg/kg, po administered daily for 10 days by H and E staining based analysis; format: functional, organism-based; conditions: time 10.0 day
[29] = test system: Mus musculus; test: (§1) Antiinflammatory activity against C57BL/6 mouse model of LPS induced acute lung injury assessed as reduction in total number of cells in BALF at 20 mg/kg, po administered every 12 hrs for 3 times followed by LPS stimulation for 6 hrs starting from 30 mins post last dose; format: functional, organism-based; conditions: time 42.5 hrs
[30] = test system: Mus musculus; test: as §1, with “inflammatory cell infiltration” for “total number of cells in BALF”, “dose by H and E staining based analysis” for “dose”; format: functional, organism-based; conditions: time 42.5 hrs
[31] = test system: Mus musculus; test: (§2) Antiinflammatory activity against C57BL/6 mouse model of LPS induced acute lung injury assessed as reduction in interstitial edema at 20 mg/kg, po administered every 12 hrs for 3 times followed by LPS stimulation for 6 hrs starting from 30 mins post last dose by H and E staining based analysis; format: functional, organism-based; conditions: time 42.5 hrs
[32] = test system: Mus musculus; test: as §2, with “IL-6 level in lung” for “interstitial edema”, “immunohistochemical” for “H and E”; format: functional, organism-based; conditions: time 42.5 hrs
[33] = test system: Mus musculus; test: Antiinflammatory activity against C57BL/6 mouse model of LPS induced acute lung injury assessed as reduction in IL-6 mRNA expression in lung at 20 mg/kg, po administered every 12 hrs for 3 times followed by LPS stimulation for 6 hrs starting from 30 mins post last dose by RT-qPCR analysis; format: functional, organism-based; conditions: time 42.5 hrs

SMILES: CC(C)=CCc1c(OCCCCNCCN2CCOCC2)ccc2ccc(=O)oc12
- Activity [1]: Non-Toxic
- solubility at 24 h [2]: 340 µg/mL (≈ 820 µM)
- IC50 [3]: 4.23 µM
- Activity ([3]; time 24.5 hrs): Dose-Dependent Effect
- IC50 [4]: 27.4 µM
- IC50 [5]: 4.57 µM
- Ratio IC50 [6]: 32
- Ratio IC50 [7]: 3.8
- half-life [8]: 10.7 h
- Tmax [9]: 3.33 h
- AUC(0-t) [10]: 1120 ng·h/mL
- Activity [11]: Non-Toxic
- Activity [12]: Non-Toxic
- Activity [13]: Non-Toxic
- Activity [14]: Non-Toxic
- Activity [15]: Non-Toxic
- inhibition [16]: inactive
- inhibition [17]: inactive
- inhibition [18]: Active
- inhibition [19]: Active
- inhibition [20]: 10.3%
- Activity [21]: Active
- Activity [22]: Active
- Activity [23]: Active
- Activity [24]: Active
- Activity [25]: Active
- Activity [26]: Active
- Activity [27]: Active
- Activity [28]: Active
- Activity [29]: Active
- Activity [30]: Active
- Activity [31]: Active
- Activity [32]: Active
- Activity [33]: Active
